Measured values published in ChEMBL document CHEMBL1201862, “PubChem BioAssay data set” (2004).
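In this assay, cells in 96-well plates receive the compound at five concentrations for 48 hours. Endpoints are linearly interpolated between the surrounding concentrations. GI50 is the concentration that inhibits growth by half.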 Calls of active or inactive are those of the source. Rule as the data show it: active = GI50 up to about 1.1 µM and inactive = higher.

Experiments:
Experiment in all cases: NCI anticancer screen, dose series, 48 h
KM12 = system: KM12
A549 = system: A549
UO-31 = system: UO-31
CAKI-1 = system: CAKI-1
OVCAR-5 = system: OVCAR-5
SF-295 = system: SF-295
A498 = system: A498
OVCAR-8 = system: OVCAR-8
EKVX = system: EKVX
786-0 = system: 786-0
K562 = system: K562
OVCAR-3 = system: OVCAR-3
NCI-H522 = system: NCI-H522
UACC-257 = system: UACC-257
LOX IMVI = system: LOX IMVI
HOP-92 = system: HOP-92
U-251 = system: U-251

Measured: GI50

NCCCNCCSSCCCCS(=O)O
inactive: KM12 > 10 µM | A549 59.8 µM | UO-31 30.6 µM | CAKI-1 75.5 µM | OVCAR-5 55.1 µM | SF-295 36.2 µM | A498 > 100 µM | OVCAR-8 38.6 µM | EKVX 85.7 µM | 786-0 > 100 µM | K562 24.3 µM | OVCAR-3 19.9 µM | NCI-H522 13.8 µM | UACC-257 17.2 µM | LOX IMVI 8.32 µM | HOP-92 > 100 µM | U-251 > 100 µM

O=C(N/N=C(/c1nc2ccc(Cl)cc2[nH]c1=O)C(O)c1ccc(Cl)cc1Cl)c1ccncc1 (configuration not stated)
inactive: KM12 > 100 µM | A549 > 100 µM | UO-31 > 100 µM | CAKI-1 > 100 µM | OVCAR-5 > 100 µM | SF-295 > 100 µM | A498 > 100 µM | OVCAR-8 > 100 µM | EKVX > 100 µM | 786-0 > 100 µM | K562 > 100 µM | OVCAR-3 > 100 µM | UACC-257 > 100 µM | LOX IMVI > 100 µM | HOP-92 > 100 µM | U-251 > 100 µM

NC(=S)N/N=C(\C(=O)Nc1cccc([N+](=O)[O-])c1)c1nc2ccc([N+](=O)[O-])cc2nc1O
inactive: KM12 40.6 µM | A549 91.2 µM | UO-31 > 100 µM | OVCAR-5 > 100 µM | SF-295 > 100 µM | A498 > 100 µM | OVCAR-8 > 100 µM | EKVX 54.3 µM | 786-0 > 100 µM | K562 89.5 µM | NCI-H522 3.85 µM | UACC-257 7.8 µM | LOX IMVI 34.7 µM | HOP-92 > 100 µM | U-251 > 100 µM

COc1ccc(S(=O)(=O)NNS(C)(=O)=O)cc1
inactive: KM12 > 100 µM | A549 > 100 µM | UO-31 > 100 µM | CAKI-1 > 100 µM | SF-295 > 100 µM | A498 > 100 µM | OVCAR-8 > 100 µM | EKVX > 100 µM | 786-0 > 100 µM | K562 > 100 µM | NCI-H522 > 100 µM | UACC-257 > 100 µM | LOX IMVI > 100 µM | U-251 > 100 µM

CC(=O)Nc1ccc(-c2nnc(SCC(=O)Nc3ccc(C)cc3)o2)cc1
inactive: KM12 19.1 µM | A549 40.3 µM | UO-31 47.6 µM | CAKI-1 11.9 µM | OVCAR-5 19.6 µM | SF-295 16.6 µM | OVCAR-8 27.7 µM | 786-0 17 µM | K562 42.4 µM | OVCAR-3 22.4 µM | NCI-H522 18.2 µM | UACC-257 20.3 µM | LOX IMVI 15.2 µM | HOP-92 18.4 µM | U-251 19.4 µM

Cc1cccc2[n+]1[C@H]1[C@H]([C@@H]3O[C@H]1c1ccccc13)[S+]([O-])N2 (some centres not stated)
inactive: KM12 42.4 µM | A549 63.2 µM | UO-31 64.7 µM | OVCAR-5 80.7 µM | SF-295 59.8 µM | A498 93.3 µM | OVCAR-8 9.98 µM | EKVX 44.4 µM | 786-0 > 100 µM | K562 23 µM | OVCAR-3 35.9 µM | NCI-H522 34.8 µM | UACC-257 32.5 µM | LOX IMVI 25.9 µM | HOP-92 11.9 µM | U-251 43.8 µM

N#C/C(=C\c1cc2ccccc2c2ccccc12)c1ccccc1
inactive: KM12 5.98 µM | A549 7.46 µM | UO-31 22.2 µM | CAKI-1 7.76 µM | OVCAR-5 45.4 µM | SF-295 5.93 µM | A498 9.18 µM | OVCAR-8 30 µM | EKVX 20 µM | 786-0 5.43 µM | K562 3.13 µM | OVCAR-3 3.45 µM | NCI-H522 5.83 µM | UACC-257 9.62 µM | LOX IMVI 9.51 µM | HOP-92 > 37.6 µM | U-251 5.78 µM

COc1cc(C2C(C(=O)Nc3ccc([N+](=O)[O-])cc3)=C(C)NC(C)=C2C(=O)Nc2ccc([N+](=O)[O-])cc2)ccc1O
inactive: KM12 18.7 µM | A549 37.6 µM | UO-31 19.1 µM | CAKI-1 31 µM | OVCAR-5 35.6 µM | SF-295 24.7 µM | A498 36.7 µM | OVCAR-8 19.9 µM | EKVX 39.1 µM | 786-0 29.1 µM | K562 13.5 µM | OVCAR-3 22.7 µM | NCI-H522 15.8 µM | UACC-257 24.2 µM | LOX IMVI 14.6 µM | HOP-92 16.4 µM | U-251 16.8 µM

COc1ccc([C@@H]2OC(=O)C3C2C(=O)O[C@H]3c2ccc(OC)c(OC)c2)cc1OC (some centres not stated)
inactive: KM12 > 100 µM | A549 > 100 µM | UO-31 > 100 µM | SF-295 > 100 µM | A498 > 100 µM | OVCAR-8 > 100 µM | EKVX > 100 µM | 786-0 > 100 µM | K562 > 100 µM | OVCAR-3 > 100 µM | NCI-H522 > 100 µM | UACC-257 > 100 µM | LOX IMVI > 100 µM | HOP-92 > 100 µM | U-251 > 100 µM

COc1ccc(NC(=O)COC(=O)c2cccc3c(=O)c4ccccc4[nH]c23)cc1
inactive: KM12 16.9 µM | A549 20.3 µM | UO-31 14.8 µM | CAKI-1 19.5 µM | SF-295 19.5 µM | A498 11.3 µM | OVCAR-8 22.4 µM | EKVX 18.4 µM | 786-0 19.1 µM | K562 17.2 µM | OVCAR-3 22.1 µM | NCI-H522 17.9 µM | UACC-257 19.9 µM | LOX IMVI 15 µM | HOP-92 25.1 µM | U-251 19.5 µM

COc1ccc(C2c3cc4c(cc3OC(O)(CO)C2C(=O)O)OCO4)c(OC)c1OC.COc1ccc(C2c3cc4c(cc3OC3(O)COC(=O)C23)OCO4)c(OC)c1OC (configuration not stated)
inactive: A549 > 100 µM | UO-31 > 100 µM | CAKI-1 65.8 µM | SF-295 > 100 µM | OVCAR-8 > 100 µM | EKVX > 100 µM | 786-0 > 100 µM | K562 46.2 µM | OVCAR-3 > 100 µM | UACC-257 > 100 µM | LOX IMVI > 100 µM | HOP-92 29.2 µM | U-251 > 100 µM

COc1ccc(CC(=O)c2cc(OC)c(OC)cc2C)cc1OC
inactive: KM12 > 100 µM | A549 71.6 µM | UO-31 18.2 µM | CAKI-1 > 100 µM | OVCAR-5 > 100 µM | SF-295 57.4 µM | A498 > 100 µM | OVCAR-8 > 100 µM | EKVX 63 µM | 786-0 > 100 µM | K562 57.5 µM | OVCAR-3 77.6 µM | NCI-H522 38 µM | UACC-257 21.3 µM | U-251 > 100 µM

CCOc1cc2c[n+](C)c3c4cc(OC)c(OC)cc4ccc3c2cc1OC
inactive: KM12 > 100 µM | A549 > 100 µM | UO-31 > 100 µM | CAKI-1 > 100 µM | OVCAR-5 > 100 µM | SF-295 > 100 µM | OVCAR-8 17.7 µM | EKVX > 100 µM | 786-0 17.7 µM | K562 > 100 µM | OVCAR-3 > 100 µM | NCI-H522 > 100 µM | UACC-257 > 100 µM | LOX IMVI > 100 µM | HOP-92 > 100 µM | U-251 > 100 µM

CC(C)(C)c1cc(Cc2ccc([N+](C)(C)C)cc2)c(O)c(C(C)(C)C)c1
inactive: KM12 15.7 µM | A549 33.9 µM | UO-31 95.3 µM | CAKI-1 63.8 µM | OVCAR-5 22.2 µM | SF-295 26.3 µM | A498 53 µM | OVCAR-8 17.4 µM | EKVX 30.2 µM | 786-0 24.2 µM | K562 9.59 µM | UACC-257 17 µM | LOX IMVI 16.4 µM | U-251 12.7 µM

O=C1/C(=C/c2ccc(Cl)cc2)CNC/C1=C\c1ccc(Cl)cc1
inactive: KM12 1.44 µM | A549 3.4 µM | CAKI-1 2.44 µM | A498 2.32 µM | OVCAR-8 3.6 µM | 786-0 2.07 µM | OVCAR-3 1.86 µM | NCI-H522 2.02 µM | U-251 1.36 µM

Nc1nc2c(ncn2C2OC(CO)C(O)C2N)c(=O)[nH]1 (configuration not stated)
inactive: KM12 > 100 µM | A549 97.1 µM | UO-31 > 100 µM | CAKI-1 > 100 µM | OVCAR-5 > 100 µM | SF-295 > 100 µM | A498 > 100 µM | OVCAR-8 > 100 µM | 786-0 48.2 µM | K562 86.9 µM | OVCAR-3 > 100 µM | NCI-H522 > 100 µM | UACC-257 > 100 µM | LOX IMVI 60.1 µM | HOP-92 > 100 µM | U-251 > 100 µM

Cc1cccc(C)c1NC(=O)C(=O)CC(=O)c1cccc([N+](=O)[O-])c1
inactive: KM12 > 100 µM | A549 > 100 µM | UO-31 > 100 µM | CAKI-1 > 100 µM | OVCAR-5 > 100 µM | SF-295 > 100 µM | A498 > 100 µM | OVCAR-8 > 100 µM | EKVX > 100 µM | 786-0 > 100 µM | K562 > 100 µM | OVCAR-3 > 100 µM | NCI-H522 > 100 µM | UACC-257 > 100 µM | HOP-92 > 100 µM | U-251 > 100 µM
